Active and inactive are the calls of the source. No cut-off for these calls is given here.
Tests used:
[1] = Cytotoxicity against human Ca9-22 cells assessed as cell survival at 5 uM preincubated for 4 hrs followed by 1 Jcm'-2 UVA irradiation measured after 24 hrs by MTT assay relative to control; format: cell-based; conditions: read-out: Survival
[2] = target: Epidermal growth factor receptor (Homo sapiens) (UniProt P00533); experiment: Inhibition of phosphorylated EGFR level in human Ca9-22 cells at 2 uM preincubated for 2 hrs followed by 0.5 Jcm'-2 UVA irradiation by Western blot analysis; format: cell-based
Ca9-22 [3] = experiment: Inhibition of phosphorylated ERK level in human Ca9-22 cells at 2 uM preincubated for 2 hrs followed by 0.5 Jcm'-2 UVA irradiation by Western blot analysis; format: cell-based
Ca9-22 [4] = experiment: Anti-metastatic activity against human Ca9-22 cells assessed as inhibition of cell migration at 2 uM preincubated for 2 hrs followed by 0.5 Jcm'-2 UVA irradiation measured after 16 hrs by wound healing assay relative to control; format: functional; conditions: Ca9-22, light or radiation study
[5] = Cytotoxicity against human Ca9-22 cells assessed as inhibition of cell survival at 2 uM preincubated for 2 hrs followed by 0.5 Jcm'-2 UVA irradiation measured after 24 hrs by MTT assay relative to control; format: cell-based; conditions: read-out: INH
Ca9-22 [6] = experiment: Anti-metastatic activity against human Ca9-22 cells assessed as reduction in heparanase mRNA expression at 2 uM preincubated for 2 hrs followed by 0.5 Jcm'-2 UVA irradiation measured after 8 hrs by qRT-PCR method; format: functional, cell-based
[7] = target: T1, Epidermal growth factor receptor (Homo sapiens) (UniProt P04626+P00533+Q15303+P21860); experiment: Inhibition of EGFR/ERK signalling in human Ca9-22 cells assessed as reduction in MMP9 mRNA expression at 2 uM preincubated for 2 hrs followed by 0.5 Jcm'-2 UVA irradiation measured after 8 hrs by qRT-PCR method; format: cell-based
[8] = target: T1, Epidermal growth factor receptor (Homo sapiens); experiment: Inhibition of EGFR/ERK signalling in human Ca9-22 cells assessed as reduction in MMP2 expression at 2 uM preincubated for 2 hrs followed by 0.5 Jcm'-2 UVA irradiation by Western blot analysis; format: cell-based
Ca9-22 [9] = experiment: Antiinvasive activity against human Ca9-22 cells assessed as cell invasion at 2 uM preincubated for 2 hrs followed by 0.5 Jcm'-2 UVA irradiation measured after 22 hrs by boyden chamber assay relative to control; format: functional
[10] = target: T1, Epidermal growth factor receptor (Homo sapiens); experiment: Inhibition of EGFR/ERK signalling in human Ca9-22 cells assessed as reduction in MMP2 mRNA expression at 2 uM preincubated for 2 hrs followed by 0.5 Jcm'-2 UVA irradiation measured after 8 hrs by qRT-PCR method; format: cell-based
Ca9-22 [11] = experiment: Anti-metastatic activity against human Ca9-22 cells assessed as increase in TIMP3 mRNA expression at 2 uM preincubated for 2 hrs followed by 0.5 Jcm'-2 UVA irradiation measured after 8 hrs by qRT-PCR method; format: functional, cell-based
[12] = target: T1, Epidermal growth factor receptor (Homo sapiens); experiment: Inhibition of EGFR/ERK signalling in human Ca9-22 cells assessed as reduction in MMP9 expression at 2 uM preincubated for 2 hrs followed by 0.5 Jcm'-2 UVA irradiation by Western blot analysis; format: cell-based
Ca9-22 [13] = experiment: Anti-metastatic activity against human Ca9-22 cells assessed as increase in syndecan-1 mRNA expression at 2 uM preincubated for 2 hrs followed by 0.5 Jcm'-2 UVA irradiation measured after 8 hrs by qRT-PCR method; format: functional, cell-based
Ca9-22 [14] = experiment: Increase in TIMP3 expression in human Ca9-22 cells at 2 uM preincubated for 2 hrs followed by 0.5 Jcm'-2 UVA irradiation by Western blot analysis; format: functional, cell-based

Sequence of Epidermal growth factor receptor (Homo sapiens) (UniProt P00533) (P00533 whole entry): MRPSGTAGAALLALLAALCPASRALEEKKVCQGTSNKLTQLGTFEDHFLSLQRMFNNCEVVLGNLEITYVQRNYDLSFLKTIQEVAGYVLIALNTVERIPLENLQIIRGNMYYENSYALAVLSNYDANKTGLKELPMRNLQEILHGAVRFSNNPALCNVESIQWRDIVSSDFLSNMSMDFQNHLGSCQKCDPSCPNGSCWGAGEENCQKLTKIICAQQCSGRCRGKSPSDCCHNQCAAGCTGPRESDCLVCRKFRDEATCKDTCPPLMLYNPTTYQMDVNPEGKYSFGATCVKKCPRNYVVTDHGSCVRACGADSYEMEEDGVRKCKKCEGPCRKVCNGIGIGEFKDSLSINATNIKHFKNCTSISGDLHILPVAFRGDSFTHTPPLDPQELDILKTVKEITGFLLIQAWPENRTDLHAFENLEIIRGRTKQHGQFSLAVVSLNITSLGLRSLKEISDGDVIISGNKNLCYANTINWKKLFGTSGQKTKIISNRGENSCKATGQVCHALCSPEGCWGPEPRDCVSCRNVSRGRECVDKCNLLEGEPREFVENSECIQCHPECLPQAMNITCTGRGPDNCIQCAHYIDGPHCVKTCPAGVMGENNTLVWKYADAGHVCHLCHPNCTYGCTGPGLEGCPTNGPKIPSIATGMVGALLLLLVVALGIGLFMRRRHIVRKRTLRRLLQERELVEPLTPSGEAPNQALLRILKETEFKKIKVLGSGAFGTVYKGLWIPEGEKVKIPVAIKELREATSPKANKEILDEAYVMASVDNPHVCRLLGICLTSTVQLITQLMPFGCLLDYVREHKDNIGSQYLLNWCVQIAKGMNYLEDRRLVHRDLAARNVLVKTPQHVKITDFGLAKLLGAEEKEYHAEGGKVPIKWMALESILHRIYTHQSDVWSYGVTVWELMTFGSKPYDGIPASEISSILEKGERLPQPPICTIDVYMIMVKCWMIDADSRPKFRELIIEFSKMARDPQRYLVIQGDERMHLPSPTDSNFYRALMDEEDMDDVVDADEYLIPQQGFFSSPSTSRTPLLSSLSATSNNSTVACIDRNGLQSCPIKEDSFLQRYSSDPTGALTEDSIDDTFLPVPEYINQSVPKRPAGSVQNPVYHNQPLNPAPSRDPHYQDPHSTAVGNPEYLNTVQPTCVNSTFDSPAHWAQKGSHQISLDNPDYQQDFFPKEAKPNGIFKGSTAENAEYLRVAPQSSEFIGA

| SMILES | viability at 24 h, 5 µM [1] [%] | inhibition at 2 µM (Ca9-22 [4]) [%] | Activity (Ca9-22 [9]) [%] | other results |
| --- | --- | --- | --- | --- |
| FC(F)(F)c1ccc2nc(-c3ccc(-n4nnc5ccccc54)cc3)sc2c1 | 91.8 | – | – | – |
| COc1ccc2nc(-c3ccc(-n4nnc5ccccc54)cc3)sc2c1 | 44.1 | 68.7 | 38.9 | inhibition [2]: Active; inhibition (Ca9-22 [3]): Active; cytotoxicity at 24 h, 2 µM [5]: 20%; Activity (Ca9-22 [6]): Active; inhibition [7]: Active; inhibition [8]: Active; inhibition [10]: Active; Activity (Ca9-22 [11]): Active; inhibition [12]: Active; Activity (Ca9-22 [13]): Active; Activity (Ca9-22 [14]): Active |
| COc1ccc2c(c1)nnn2-c1ccc(-c2nc3ccccc3s2)cc1C | 79.6 | 18.5 | 75.9 | – |
| COc1ccc2nc(-c3ccc(-n4nnc5ccccc54)c(C)c3)sc2c1 | 82.1 | – | – | – |
| CCc1ccc2nc(-c3ccc(-n4nnc5cc(OC)ccc54)c(C)c3)sc2c1 | 73.1 | 31.1 | 70 | – |
| COc1ccc2c(c1)nnn2-c1ccc(-c2nc3ccc(OC)cc3s2)cc1C | 63.3 | – | – | – |
| c1ccc2sc(-c3ccc(-n4nnc5ccccc54)cc3)nc2c1 | 95.5 | – | – | – |
| COc1ccc2c(c1)nnn2-c1ccc(-c2nc3ccc(OC)cc3s2)cc1 | 81.1 | 51.7 | 108.6 | – |
| Cc1cc(-c2nc3ccc(C(F)(F)F)cc3s2)ccc1-n1nnc2ccccc21 | 89.4 | – | – | – |
| COc1ccc2c(c1)nnn2-c1ccc(-c2nc3ccc(C(F)(F)F)cc3s2)cc1 | 105 | – | – | – |
| CCc1ccc2nc(-c3ccc(-n4nnc5ccccc54)c(C)c3)sc2c1 | 50.2 | 70.1 | 47 | inhibition [2]: Active; inhibition (Ca9-22 [3]): Active; inhibition [8]: Active; inhibition [12]: Active; Activity (Ca9-22 [14]): Active |
| COc1ccc2c(c1)nnn2-c1ccc(-c2nc3ccccc3s2)cc1 | 104 | – | – | – |
| CCc1ccc2nc(-c3ccc(-n4nnc5cc(OC)ccc54)cc3)sc2c1 | 114 | – | – | – |
| COc1ccc2c(c1)nnn2-c1ccc(-c2nc3ccc(C(F)(F)F)cc3s2)cc1C | 113 | – | – | – |
| Cc1cc(-c2nc3ccccc3s2)ccc1-n1nnc2ccccc21 | 48.6 | 45.8 | 47.6 | inhibition [2]: Active; inhibition (Ca9-22 [3]): Active; inhibition [8]: Active; inhibition [12]: Active; Activity (Ca9-22 [14]): Active |
| CCc1ccc2nc(-c3ccc(-n4nnc5ccccc54)cc3)sc2c1 | 109 | – | – | – |

— ChEMBL document CHEMBL3817730, “Design, synthesis and antimetastatic evaluation of 1-benzothiazolylphenylbenzotriazoles for photodynamic therapy in oral cancer cells” (Medchemcomm, 2016)
